A value given as a limit tells only on which side of the number the result lay.

This is an account of results in patent US7737155B2, “Nitrogen-containing heterocyclic compounds and methods of use thereof” (Schering Corporation, priority 2005, dated 2010).

recombinant human nicotinic acid receptor (NAR), sequence (Q8TDS4 whole entry): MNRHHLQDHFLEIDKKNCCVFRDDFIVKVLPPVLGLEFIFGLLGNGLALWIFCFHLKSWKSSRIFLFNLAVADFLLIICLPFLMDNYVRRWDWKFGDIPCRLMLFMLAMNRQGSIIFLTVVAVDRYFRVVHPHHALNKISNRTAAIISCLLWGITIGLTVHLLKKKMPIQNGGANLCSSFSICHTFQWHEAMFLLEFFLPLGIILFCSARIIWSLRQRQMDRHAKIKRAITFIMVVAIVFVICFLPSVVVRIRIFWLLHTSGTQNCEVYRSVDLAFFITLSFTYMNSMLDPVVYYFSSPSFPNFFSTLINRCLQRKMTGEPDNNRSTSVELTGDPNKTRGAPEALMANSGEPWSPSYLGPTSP

One test addresses recombinant human nicotinic acid receptor (NAR) (Homo sapiens, UniProt Q8TDS4). Briefly: Nicotinic Acid Receptor Assay: inhibition of forskolin-stimulated cAMP accumulation in CHO cells (MesoScale Discovery cAMP kit). It counts as cell-based. The note with it: CHO cells expressing recombinant human NAR; forskolin-stimulated cAMP; read-out: NA EC50 camp. As to the method:
The nicotinic acid receptor agonist activity of the inventive compounds was determined by following the inhibition of forskolin-stimulated cAMP accumulation in cells using the MesoScale Discovery cAMP detection kit following the manufacture's protocol. Briefly, Chinese Hamster Ovary (CHO) cells expressing recombinant human nicotinic acid receptor (NAR) were harvested enzymatically, washed 1× in phosphate buffered saline (PBS) and resuspended in PBS containing 0.5 mM IBMX at 3×10^6 cells/mL. Ten μL of cell suspension was added to each well of a 384-well plate which contained 10 μL of test compounds. Test compounds were diluted with PBS containing 6 μM of forskolin. Plates were incubated for 30 minutes at room temperature after the addition of cells. Lysis buffer containing cAMP-Tag was added to each well (10 μL/well) as per the manufacturer's protocol. Plates were then incubated from 45 minutes to overnight. Prior to reading, 10 μL of read buffer was added to each well, and the plate was read in a Sector 6000 plate imager. The signal was converted to cAMP concentration using a standard curve run on each plate.
For orientation: Changes in cAMP serve as a functional read-out for many G protein-coupled receptors.
On to `Cn1c(=O)[nH]c(=O)c2c(CCC3CC3)cc(=O)oc21` [Compound 275], for which the EC50 is 100 to 1000 nM.
With `CCc1cc(=O)oc2nc(OCC#CCOC)[nH]c(=O)c12` [Compound 636], the EC50 is 100 to 1000 nM.
On the same count and under the same terms, the value for `O=c1cc(CCCc2cccs2)c2c(=O)[nH]c(=O)n(CC3CC3)c2o1` [Compound 255] was > 1000 nM; that for `CCc1cc(=O)oc2nc(OCc3cccc(-c4ccccc4F)c3)[nH]c(=O)c12` [Compound 559] was 100 to 1000 nM; that for `O=c1cc(CCc2cccs2)c2c(=O)n(C3CCC3)c(=O)[nH]c2o1` [Compound 282] was 100 to 1000 nM.
As to `CCc1cc(=O)oc2nc(OCC#CC(O)CC)[nH]c(=O)c12` (stereo not shown) [Compound 671], the EC50 lay in the range of 0.001 to 100 nM.
Regarding `CCc1noc(C)c1COc1nc2oc(=O)cc(Cc3cccc(F)c3)c2c(=O)[nH]1` [Compound 685], the EC50 fell in the range of 100 to 1000 nM.
The same measure, in the same setting: in the case of `CCc1cc(=O)oc2nc(OCc3cnc(Br)s3)[nH]c(=O)c12` [Compound 608] it was 100 to 1000 nM; in that of `CCc1cc(=O)oc2nc(OCCN3CCCCC3)[nH]c(=O)c12` [Compound 578], > 1000 nM.
For the compound `CCc1cc(=O)oc2nc(OCc3ccccc3-c3ccc(CO[Si](C)(C)C(C)(C)C)cc3)[nH]c(=O)c12` [Compound 651], the EC50 was in the range of 100 to 1000 nM.
Still for that read-out and setting: in the case of `O=c1[nH]c(=O)c2c(Cc3ccc(-c4ccccc4F)cc3)cc(=O)oc2[nH]1` [Compound 205] it was 100 to 1000 nM.
For `CCc1cc(=O)oc2nc(OCc3ccc4ccccc4n3)[nH]c(=O)c12` [Compound 527], the EC50 lay within 100 to 1000 nM.
The same measure, in the same setting: in the case of `CCc1cc(=O)oc2nc(OCc3sccc3-n3cccc3)[nH]c(=O)c12` [Compound 533] it was > 1000 nM; in that of `CCC#CC(C)Oc1nc2oc(=O)cc(CC)c2c(=O)[nH]1` (stereo not shown) [Compound 639], 100 to 1000 nM; in that of `CCc1cc(=O)oc2nc(OCc3ccc(-c4cccc(C(F)(F)F)c4)cc3F)[nH]c(=O)c12` [Compound 573], 100 to 1000 nM.
The same measure, in the same setting: the value for `CCc1cc(=O)oc2nc(OCCN3CCOC3=O)[nH]c(=O)c12` [Compound 620] was > 1000 nM; that for `O=c1[nH]c(=O)c2c(CCC3CCC3)c(-c3ccc(C(F)(F)F)cc3)c(=O)oc2[nH]1` [Compound 701] was > 1000 nM.
Consider `CCc1cc(=O)oc2nc(OCCS(=O)(=O)c3ccc(Cl)cc3)[nH]c(=O)c12` [Compound 591], for which the EC50 is 0.001 to 100 nM.
`CCCCc1c(-c2ccc(C(F)(F)F)cc2)c(=O)oc2[nH]c(=O)[nH]c(=O)c12` [Compound 708]: the EC50 was in the range of 100 to 1000 nM.
On the same count and under the same terms, the value for `CCc1cc(=O)oc2nc(OCc3cc(F)cc(F)c3)[nH]c(=O)c12` [Compound 506] was > 1000 nM; that for `CCCCc1c(-c2ccc(F)cc2)c(=O)oc2[nH]c(=O)[nH]c(=O)c12` [Compound 706] was > 1000 nM.
Same read-out and setting: in the case of `CCc1cc(=O)oc2nc(OCc3ccc(-c4ccncc4)cc3F)[nH]c(=O)c12` [Compound 574] it was 100 to 1000 nM; in that of `CCCCc1c(-c2ccccc2)c(=O)oc2[nH]c(=O)[nH]c(=O)c12` [Compound 292], 100 to 1000 nM.
Still for that read-out and setting: in the case of `N#Cc1cccc(Cc2cc(=O)oc3[nH]c(=O)[nH]c(=O)c23)c1` [Compound 231] it was > 1000 nM; in that of `O=c1[nH]c(=O)c2c(CC3C[C@@H]4CC[C@H]3C4)cc(=O)oc2[nH]1` (stereo partly shown) [Compound 201], > 1000 nM.
On to `CCc1cc(=O)oc2nc(OCCOc3ccc(Br)cc3)[nH]c(=O)c12` [Compound 600], for which the EC50 is > 1000 nM.
As for `CCc1cc(=O)oc2nc(OCc3ccc(Cl)cc3OC)[nH]c(=O)c12` [Compound 515], the EC50 is 100 to 1000 nM.
In the case of `CCc1cc(=O)oc2nc(OCCOc3ccccc3)[nH]c(=O)c12` [Compound 525], the EC50 lay within 100 to 1000 nM.
Still for that read-out and setting: the value for `CCc1cc(=O)oc2nc(OCc3cc(C)n(C)n3)[nH]c(=O)c12` [Compound 530] was 100 to 1000 nM; that for `CCCC(C)c1cc(=O)oc2[nH]c(=O)[nH]c(=O)c12` (stereo not shown) [Compound 218] was 100 to 1000 nM; that for `CCOC(=O)COc1nc2oc(=O)cc(CC)c2c(=O)[nH]1` [Compound 519] was > 1000 nM.
Same read-out and setting: the value for `COC(C)(C)CCc1cc(=O)oc2[nH]c(=O)[nH]c(=O)c12` [Compound 279] was > 1000 nM; that for `CCc1cc(=O)oc2nc(OCc3ccccc3-c3cccc(C(=O)NC)c3)[nH]c(=O)c12` [Compound 551] was 100 to 1000 nM.
On the same count and under the same terms, the value for `CCn1c(=O)[nH]c2oc(=O)cc(C)c2c1=O` [Compound 289] was > 1000 nM.
On to `CCc1cc(=O)oc2nc(OCc3cccc(-c4ccc(OC)c(OC)c4)c3)[nH]c(=O)c12` [Compound 565], for which the concentration giving a half-maximal response (EC50) fell in the range of 100 to 1000 nM.
For the compound `O=c1cc(CCCc2cccs2)c2c(=O)n(C3CCC3)c(=O)[nH]c2o1` [Compound 281], the EC50 was in the range of 100 to 1000 nM.
Still for that read-out and setting: the value for `CCc1cc(=O)oc2nc(OCc3cc4c(C)nn(C)c4s3)[nH]c(=O)c12` [Compound 646] was > 1000 nM; that for `CC(C)CCc1cc(=O)oc2[nH]c(=O)n(C3CCC3)c(=O)c12` [Compound 245] was 0.001 to 100 nM; that for `COCC#CCOc1nc2oc(=O)cc(Cc3ccc(F)cc3)c2c(=O)[nH]1` [Compound 661] was 100 to 1000 nM.
Same read-out and setting: in the case of `CCc1cc(=O)oc2nc(OCc3ccccc3-n3cncn3)[nH]c(=O)c12` [Compound 571] it was 100 to 1000 nM.
For `O=c1[nH]c(=O)c2c(CCC3CCC3)c(-c3ccc(F)cc3)c(=O)oc2[nH]1` [Compound 700], the EC50 is > 1000 nM.
In the case of `Cc1cccc(COc2nc3oc(=O)cc(Cc4ccccc4)c3c(=O)[nH]2)n1` [Compound 609], the EC50 was > 1000 nM.

Still in this test, the particulars now being: NA EC50 camp (nM), CHO cells expressing recombinant human NAR; forskolin-stimulated cAMP.
For the compound `CCC#CCOc1nc2oc(=O)cc(CC)c2c(=O)[nH]1` [Compound 512], the EC50 lay in the range of 0.001 to 100 nM.

The same test, now with this note: NA EC50 camp, inhibition of forskolin-stimulated cAMP accumulation, CHO cells expressing recombinant human NAR.
With `O=c1cc(CCCC2CC2)c2c(=O)[nH]c(C(F)F)nc2o1` [Compound 740], the EC50 came to 130 nM.

The test is the same for the next values; noted with them: inhibition of forskolin-stimulated cAMP accumulation, CHO cells expressing recombinant human NAR; read-out: NA EC50 camp.
Turning to `O=c1nc(OCF)c2c(CCCC3CC3)cc(=O)oc2[nH]1` [Compound 789], the EC50 is 88 nM.
On to `CCCCc1cc(=O)oc2[nH]c(=O)nc(OCC(F)(F)F)c12` [Compound 829], for which the EC50 came out at 882 nM.
With `CCC#CCOc1nc2oc(=O)cc(CCCC)c2c(=O)[nH]1` [Compound 734], the EC50 is 71.8 nM.
On to `CCn1c(=O)[nH]c2oc(=O)cc(CCCC3CC3)c2c1=O` [Compound 782], for which the EC50 was 94 nM.
Turning to `CCC#CCOc1nc2oc(=O)cc(CCCC(C)C)c2c(=O)[nH]1` [Compound 715], the EC50 was determined as 671 nM.
In the case of `CCCCc1cc(=O)oc2[nH]c(=O)n(OCC)c(=O)c12` [Compound 779], the EC50 worked out at 2850 nM.
Still for that read-out and setting: the value for `CCCCc1cc(=O)oc2nc(OCC#CC(O)CC)[nH]c(=O)c12` (stereo not shown) [Compound 736] was 32.9 nM.
As to `O=c1cc(CCC2CC2)c2c(=O)[nH]c(OCC#CC3CC3)nc2o1` [Compound 722], the EC50 came out at 111 nM.
Still for that read-out and setting: the value for `O=c1nc(OCCF)c2c(CCCC3CC3)cc(=O)oc2[nH]1` [Compound 824] was 91 nM; that for `COn1c(=O)[nH]c(=O)c2c(CCC3CCC3)cc(=O)oc21` [Compound 771] was 17 nM; that for `CCCCc1c(-c2ccccc2)c(=O)oc2[nH]c(=O)[nH]c(=O)c12` [Compound 292] was 300 nM.
With `O=c1nc(OCC(F)F)c2c(CCCC3CC3)cc(=O)oc2[nH]1` [Compound 831], the EC50 amounted to 531 nM.
The same measure, in the same setting: in the case of `CCCCc1cc(=O)oc2[nH]c(=O)nc(OCC(F)F)c12` [Compound 828] it was 407 nM.
Same read-out and setting: in the case of `CCCCc1cc(=O)oc2nc(O[C@H]3C[C@H](COCc4ccccc4)C3)[nH]c(=O)c12` [Compound 791] it was 50 nM.

What is called EC50 is the concentration that produces a half-maximal response.
